The values that follow come from patent US20250313549A1, “HERBICIDAL DERIVATIVES” (SYNGENTA CROP PROTECTION AG, priority 2021, published 2025).

Common to all, as to format: in vivo
Assay [1] concerns Setaria faberi (SETFA). The assay is described as follows: Pre-emergence test, herbicidal damage. The settings on record: 1000 g/ha, evaluated after 13 days.
The test system of assay [2] is Echinochloa crus-galli (ECHCG). The assay is described as follows: Pre-emergence test, herbicidal damage. The settings on record: 1000 g/ha, evaluated after 13 days.
The subject of assay [3] is Ipomoea hederacea (IPOHE). Kind of assay: Post-emergence test, herbicidal damage. To be noted: sprayed after 8 days cultivation, 1000 g/ha, evaluated after 13 days. As to the method:
(§1) Seeds of a variety of test species are sown in standard soil in pots (Amaranthus retoflexus (AMARE), Echinochloa crus-galli (ECHCG), Amaranthus palmeri (AMAPA), Setaria faberi (SETFA), Zea mays (ZEAMX), Ipomoea hederacea (IPOHE)). After 8 days cultivation under controlled conditions in a glasshouse (at 24° C./16° C., day/night; 14 hours light; 65% humidity), the plants are sprayed with an aqueous spray solution derived from the formulation of the technical active ingredient in acetone/water (50:50) solution containing 0.5% Tween 20 (polyoxyethylene sorbitan monolaurate, CAS RN 9005-64-5). Compounds are applied at 1000 g/ha unless otherwise stated. The test plants are then grown in a glasshouse under controlled conditions in a glasshouse (at 24° C./16° C., day/night; 14 hours light; 65% humidity) and watered twice daily. After 13 days the test is evaluated for the percentage damage caused to the plant. The biological activities are shown in the following table on a five-point scale (5=81-100%; 4=61-80%; 3=41-60%; 2=21-40%; 1=10-20%; 0=0%; -=not tested).

The test system of assay [4] is Echinochloa crus-galli (ECHCG). The assay is described as follows: Post-emergence test, herbicidal damage. To be noted: sprayed after 8 days cultivation, 1000 g/ha, evaluated after 13 days. As to the method: as §1
Assay [5] relates to Zea mays (ZEAMX). Kind of assay: Post-emergence test, herbicidal damage. To be noted: sprayed after 8 days cultivation, 1000 g/ha, evaluated after 13 days. The procedure: as §1
Assay [6] deals with Amaranthus palmeri (AMAPA). Kind of assay: Post-emergence test, herbicidal damage. To be noted: sprayed after 8 days cultivation, 1000 g/ha, evaluated after 13 days. As to the method: as §1
The subject of assay [7] is Amaranthus retoflexus (AMARE). The assay is described as follows: Post-emergence test, herbicidal damage. To be noted: sprayed after 8 days cultivation, 1000 g/ha, evaluated after 13 days. As to the method: as §1
For assay [8], the system named is Setaria faberi (SETFA). Kind of assay: Post-emergence test, herbicidal damage. To be noted: sprayed after 8 days cultivation, 1000 g/ha, evaluated after 13 days. The procedure: as §1
The subject of assay [9] is Amaranthus retoflexus (AMARE). Kind of assay: Pre-emergence test, herbicidal damage. To be noted: 1000 g/ha, evaluated after 13 days.
For assay [10], the system named is Amaranthus palmeri (AMAPA). Kind of assay: Pre-emergence test, herbicidal damage. The settings on record: 1000 g/ha, evaluated after 13 days.
Assay [11] concerns Zea mays (ZEAMX). Kind of assay: Pre-emergence test, herbicidal damage. The settings on record: 1000 g/ha, evaluated after 13 days.
The test system of assay [12] is Ipomoea hederacea (IPOHE). The assay is described as follows: Pre-emergence test, herbicidal damage. The settings on record: 1000 g/ha, evaluated after 13 days.

Regarding `N#Cc1cccc2c1c(=O)c(C(=O)O)nn2-c1cncnc1` [Compound 1, 5-cyano-4-oxo-1-pyrimidin-5-yl-cinnoline-3-carboxylic acid], the “percentage damage caused to the plant, SETFA” value in the assay with Setaria faberi (SETFA) [1] is reported as 0 (0=0%); with Setaria faberi (SETFA) [8], 1 (1=10-20%). Further, the “percentage damage caused to the plant, ECHCG” value in [2] and in assay [4] was 2 (2=21-40%) each time. In addition, the “percentage damage caused to the plant, IPOHE” value in [3] is on record as 1 (1=10-20%); in assay [12] it was 0 (0=0%). The “percentage damage caused to the plant, ZEAMX” value is listed as 1 (1=10-20%) in the assay on Zea mays (ZEAMX) [5] and 0 (0=0%) in the assay with Zea mays (ZEAMX) [11]. The “percentage damage caused to the plant, AMAPA” value is 1 (1=10-20%) in assay [6] and 0 (0=0%) in assay [10]. Besides, the results for the “percentage damage caused to the plant, AMARE” value in assay [7] and in assay [9] were 2 (2=21-40%) and 0 (0=0%), respectively.
`CCOC(=O)c1nn(-c2ccnc(Br)c2)c2cccc(Br)c2c1=O` [Compound 10, ethyl 5-bromo-1-(2-bromo-4-pyridyl)-4-oxo-cinnoline-3-carboxylate]: the “percentage damage caused to the plant, SETFA” value in the assay with Setaria faberi (SETFA) [1] and with Setaria faberi (SETFA) [8] was 0 (0=0%) each time. The “percentage damage caused to the plant, IPOHE” value in [3] and in assay [12] was 0 (0=0%) in each case. Moreover, the “percentage damage caused to the plant, ECHCG” value in assay [4] is recorded as 1 (1=10-20%). The “percentage damage caused to the plant, ZEAMX” value in the assay with Zea mays (ZEAMX) [5] and in the assay on Zea mays (ZEAMX) [11] was 0 (0=0%) in each case. Besides, the “percentage damage caused to the plant, AMAPA” value in [6] is given as 3 (3=41-60%); in [10], 0 (0=0%). For the same molecule, the “percentage damage caused to the plant, AMARE” value in assay [7] is given as 3 (3=41-60%); in [9], 1 (1=10-20%).
Consider `CCOC(=O)c1nn(-c2ccc(F)nc2)c2cccc(Br)c2c1=O` [Compound 23, ethyl 5-bromo-1-(6-fluoro-3-pyridyl)-4-oxo-cinnoline-3-carboxylate], for which the “percentage damage caused to the plant, SETFA” value with Setaria faberi (SETFA) [1] and with Setaria faberi (SETFA) [8] was 4 (4=61-80%) each time. Moreover, the “percentage damage caused to the plant, ECHCG” value in [2] is given as 5 (5=81-100%); in assay [4] it was 4 (4=61-80%). Besides, the “percentage damage caused to the plant, IPOHE” value in assay [3] is given as 0 (0=0%); in [12], 1 (1=10-20%). The “percentage damage caused to the plant, ZEAMX” value with Zea mays (ZEAMX) [5] is 1 (1=10-20%); in the assay on Zea mays (ZEAMX) [11], 0 (0=0%). The “percentage damage caused to the plant, AMAPA” value in [6] and in [10] was 0 (0=0%) throughout. Besides, the “percentage damage caused to the plant, AMARE” value in assay [7] and in assay [9] was 0 (0=0%) in each case.
As to `CCOC(=O)c1nn(-c2cnc(Cl)c(C)c2)c2cccc(Br)c2c1=O` [Compound 26, ethyl 5-bromo-1-(6-chloro-5-methyl-3-pyridyl)-4-oxo-cinnoline-3-carboxylate], the “percentage damage caused to the plant, ECHCG” value in [2] and in [4] was 0 (0=0%) each time. The results for the “percentage damage caused to the plant, IPOHE” value in assay [3] and in [12] were 2 (2=21-40%) and 0 (0=0%), respectively. The “percentage damage caused to the plant, AMAPA” value in [6] and in assay [10] was 1 (1=10-20%) in each case. Besides, the “percentage damage caused to the plant, AMARE” value was 2 (2=21-40%) in assay [7] and 1 (1=10-20%) in assay [9]. Besides, the “percentage damage caused to the plant, SETFA” value with Setaria faberi (SETFA) [8] is 1 (1=10-20%). Also, in the assay with Zea mays (ZEAMX) [11], the “percentage damage caused to the plant, ZEAMX” value was 0 (0=0%).
As for `CCOC(=O)c1nn(-c2ccc(C(F)F)nc2)c2cccc(Br)c2c1=O` [Compound 30, ethyl 5-bromo-1-[6-(difluoromethyl)-3-pyridyl]-4-oxo-cinnoline-3-carboxylate], the “percentage damage caused to the plant, ECHCG” value is given as 2 (2=21-40%) in assay [2] and 4 (4=61-80%) in assay [4]. The “percentage damage caused to the plant, IPOHE” value in assay [3] was 2 (2=21-40%); in [12] it was 0 (0=0%). In addition, the “percentage damage caused to the plant, AMAPA” value in [6] is 1 (1=10-20%); in assay [10], 0 (0=0%). The entries for the “percentage damage caused to the plant, AMARE” value in assay [7] and in assay [9] were 1 (1=10-20%) and 0 (0=0%), respectively. Further, the “percentage damage caused to the plant, SETFA” value in the assay on Setaria faberi (SETFA) [8] is recorded as 0 (0=0%). In addition, in the assay on Zea mays (ZEAMX) [11], the “percentage damage caused to the plant, ZEAMX” value is 0 (0=0%).
For the molecule `CCOC(=O)c1nn(-c2ccc(OC(F)F)nc2)c2cccc(C(C)=O)c2c1=O` [Compound 37, ethyl 5-acetyl-1-[6-(difluoromethoxy)-3-pyridyl]-4-oxo-cinnoline-3-carboxylate], the “percentage damage caused to the plant, ECHCG” value in [2] and in assay [4] was 4 (4=61-80%) throughout. In addition, the figures for the “percentage damage caused to the plant, IPOHE” value in assay [3] and in assay [12] were 2 (2=21-40%) and 0 (0=0%), respectively. Also, the “percentage damage caused to the plant, AMAPA” value in [6] and in assay [10] was 0 (0=0%) in each case. The “percentage damage caused to the plant, AMARE” value in assay [7] is on record as 1 (1=10-20%); in [9], 0 (0=0%). Further, the “percentage damage caused to the plant, SETFA” value with Setaria faberi (SETFA) [8] was 1 (1=10-20%). Moreover, the “percentage damage caused to the plant, ZEAMX” value with Zea mays (ZEAMX) [11] is listed as 4 (4=61-80%).
For the molecule `CCOC(=O)c1nn(-c2ccnc(OC(F)F)c2)c2cccc(C(C)=O)c2c1=O` [Compound 40, ethyl 5-acetyl-1-[2-(difluoromethoxy)-4-pyridyl]-4-oxo-cinnoline-3-carboxylate], the “percentage damage caused to the plant, ECHCG” value is recorded as 3 (3=41-60%) in assay [2] and 4 (4=61-80%) in [4]. Besides, the results for the “percentage damage caused to the plant, IPOHE” value in assay [3] and in [12] were 1 (1=10-20%) and 0 (0=0%), respectively. The “percentage damage caused to the plant, AMAPA” value in [6] and in [10] was 0 (0=0%) in each case. Besides, the figures for the “percentage damage caused to the plant, AMARE” value in assay [7] and in [9] were 1 (1=10-20%) and 0 (0=0%), respectively. Moreover, the “percentage damage caused to the plant, SETFA” value with Setaria faberi (SETFA) [8] is listed as 1 (1=10-20%). In the assay on Zea mays (ZEAMX) [11], the “percentage damage caused to the plant, ZEAMX” value is listed as 0 (0=0%).
For the molecule `CCOC(=O)c1nn(-c2ccnc(OC(F)F)c2)c2cccc(/C(C)=N\OC)c2c1=O` [Compound 41, ethyl 1-[2-(difluoromethoxy)-4-pyridyl]-5-[(Z)—N-methoxy-C-methyl-carbonimidoyl]-4-oxo-cinnoline-3-carboxylate], the “percentage damage caused to the plant, ECHCG” value in assay [2] is listed as 4 (4=61-80%); in [4], 2 (2=21-40%). The “percentage damage caused to the plant, IPOHE” value was 1 (1=10-20%) in assay [3] and 0 (0=0%) in [12]. The “percentage damage caused to the plant, AMAPA” value in assay [6] is recorded as 1 (1=10-20%); in [10], 0 (0=0%). Further, the figures for the “percentage damage caused to the plant, AMARE” value in [7] and in assay [9] were 1 (1=10-20%) and 0 (0=0%), respectively. Also, the “percentage damage caused to the plant, SETFA” value in the assay on Setaria faberi (SETFA) [8] was 1 (1=10-20%). The “percentage damage caused to the plant, ZEAMX” value with Zea mays (ZEAMX) [11] was 1 (1=10-20%).
